Test [1] concerns leaky scanning from cap-proximal AUG in HEK293T cells. Briefly: Leaky scanning GFP reporter with cap-proximal upstream AUG, western blot. Format: cell-based, human. Conditions: upstream AUG with 16 nt 5′UTR. The text has this:
(§1) FIGS. 1A-G: Identification and initial characterization of eIF1-eIF4G1 inhibitors using a high-throughput drug screen (HTS). (1A) A flowchart describing the steps of the recombinant eIF1-eIF4G1 split-RL HTS. (1B) Selection of drugs that inhibit leaky scanning. HEK293T cells were transfected with a short 5′UTR bearing GFP reporter gene described on the top, treated with the indicated HTS hits, and then analyzed by western blot with GFP antibody. US and DS denote upstream and downstream AUG initiation sites, respectively. (1C) A graph showing the change in the ratio of the upstream and downstream AUG following treatment with the indicated drugs. (1D) The chemical structure of the eIF1-eIF4G1 inhibitors, i14G1-10 and i14G1-12. (1E) His-tagged eIF4G1 and His-tagged eIF1 were expressed in BL21 bacteria and purified using nickel NTA beads. Purified His-tagged eIF4G1 and His-tagged eIF1 were incubated with the indicated doses of either i14G1-10 (0-256 μM) or i14G1-12 (0-256 μM) for 5 minutes, followed by fluorescence measurement. For eIF4G1 excitation was at 280 nm and emission was at 350 nm. For eIF1 excitation was at 274 nm and emission was at 304 nm. The data shown represent three independent replicates. IC50 was calculated using Graphpad prism 9. (1F-1G) Western blots of GST pull down. […]
To address the functional significance of the temporal eIF1-eIF4G1 interaction, the inventors set out to develop pharmacological tools against this complex. To this end, the split-Renilla luciferase (RL) complementation assay previously found to be an efficient readout of eIF1 and eIF4G1 interaction in mammalian cells and a highly sensitive and powerful approach for the identification of protein-protein inhibitors was used. […] As knockdown of either eIF1 or eIF4G1 and interference with eIF1-eIF4G1 interaction led to the arrest of leaky scanning from cap-proximal AUG, the selected compounds were analyzed for their effect on initiation from cap-proximal AUG. […]
On the technique in general: In western blotting, separated proteins are transferred to a membrane and probed.

For the next test, the target named is T1, eIF1-eIF4G1 interaction (Homo sapiens, UniProt Q04637).
T1 construct: GST-eIF4G1 (aa 675-725) was incubated with His-eIF1; made in house; host or cells: His-eIF1: E. coli BL21
T1 sequence (Q04637 675-725): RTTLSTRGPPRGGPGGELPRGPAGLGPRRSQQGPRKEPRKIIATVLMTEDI
Briefly: GST pull down of His-eIF1 with GST-eIF4G1. The class given is binding. Conditions: GST-eIF4G1 (aa 675-725) with His-eIF1, vs DMSO.
Text: as §1

The target in the next test is T2, eIF1 (Homo sapiens, UniProt P41567).
T2 construct: made in house; host or cells: E. coli BL21
T2 sequence (P41567 whole entry): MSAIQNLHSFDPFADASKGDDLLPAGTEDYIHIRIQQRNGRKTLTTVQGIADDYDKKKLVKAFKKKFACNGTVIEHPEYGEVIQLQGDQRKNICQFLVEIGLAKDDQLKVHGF
The experiment in a line: Intrinsic fluorescence of His-eIF1. Format: binding. Conditions: 0-256 μM, 5 minutes.
Text: as §1, with “For eIF4G1 excitation was at 280 nm and emission was at 350 nm. For eIF1 excitation was at 274 nm and emission was at 304 nm. The data shown represent three independent replicates.” left out, “9.” for “9. (1F-1G) Western blots of GST pull down.”
Intrinsic fluorescence of His-eIF1 and His-eIF4G1. […] After 5 minutes, fluorescence (280/350) was measured on Cytation 5 multi-mode reader (Biotek). The fluorescence intensity values corresponding to respective concentration in both i14G1-10 and i14G1-12 treatments were plotted and IC50 was calculated using GraphPad Prism 9.0. […]

On to `O=C(/C=C/Sc1ccc(C(F)(F)F)cn1)c1ccccc1` [i14G1-10], for which the “upstream to downstream AUG ratio (leaky scanning)” value in test [1] is “selectively changed the upstream to downstream ratio by inhibiting leaky scanning from the cap-proximal AUG”. Moreover, the “association of eIF1 with eIF4G1” value at eIF1-eIF4G1 interaction is “decrease in the association of eIF1 with eIF4G1”. In addition, on eIF1, the “intrinsic fluorescence of eIF1” value is “almost unchanged”.

On to `Cn1ccnc1S/C(=C/C=C(C#N)C#N)c1ccc(Cl)cc1` [i14G1-12], for which the “upstream to downstream AUG ratio (leaky scanning)” value in test [1] was “selectively changed the upstream to downstream ratio by inhibiting leaky scanning from the cap-proximal AUG”. Also, the “association of eIF1 with eIF4G1” value on eIF1-eIF4G1 interaction was “decrease in the association of eIF1 with eIF4G1”. Besides, the IC50 on eIF1 (excitation 274 nm, emission 304 nm, read-out: IC-50, decrease of eIF1 intrinsic fluorescence) was 54 µM.

The record behind these values is patent US20250090510A1, “eIF4G1-eIF1 INHIBITORS AND USE THEREOF” (YEDA RESEARCH AND DEVELOPMENT CO. LTD., priority 2022, published 2025).
